Where “and” joins values, the source holds several entries; their conditions need not be identical. Equal entries are not always repeated. Where two headings read alike, the source gives them in different places.
Legend:
[1] = biological target: KOR (Homo sapiens (Human), UniProt P41145); assay: cAMP accumulation assay, forskolin-stimulated CHO-K1 cells stably expressing KOR; assay type: cell-based
Protocol: Inhibition of cAMP accumulation by select compounds was measured in forskolin-stimulated CHO-K1 cells stably expressing KOR. CHO-K1 cells stably expressing KOR were harvested using Invitrogen Cell Dissociation Buffer, and then centrifuged at 1200 rpm for five minutes. The supernatant was aspirated and cells were resuspended in assay buffer to a density of 4×10^5 cells/mL. 25 μL of cells were added into a white half-area 96 well plate. Fourteen point serial dilutions of test compounds were carried out in assay buffer (PBS with 0.5 mM IBMX). Ketazocine was used as a positive control for each assay. 12.5 μL of compound was added to the cells in duplicate for each test concentration. The cells were then stimulated with 12.5 μL forskolin at a final concentration 20 μM. Cells were incubated for 45 minutes in a 37° C., 5% CO2 water jacketed incubator. CisBio HTRF cAMP assay reagent was used for cAMP quantitation. Two hours after substrate addition, signal at 665/615 nm was measured using the Perkin Elmer Victor X4 HTRF reader. Data analysis was done using GraphPad Prism, sigmoidal dose-response (variable slope) curve fitting.

[2] = biological target: recombinant human kappa (KOR) opioid receptor (Homo sapiens (Human), UniProt P41145); assay: biochemical; assay type: binding
[3] = test system: Swiss Albino or CD-1 male mice; assay: Acetic acid writhing (AAW) analgesic assay; assay type: in vivo; conditions: for inhibition in vivo at 30 mg/kg / inhibition in vivo at 3 mg/kg / inhibition in vivo at 10 mg/kg / inhibition in vivo at 0.3 mg/kg: Mus musculus, 20 min, read-out: AAW % Efficacy
Protocol: Approaches for evaluating analgesic activity of a compound of the present invention in vivo include a “writhing test.” Briefly, the compound to be tested is administered [by, for example, injection (e.g., subcutaneous injection)] to the mouse. Thereafter, a 0.5% acetic acid solution is administered (i.p.) to a mouse and the numbers of writhing responses are counted for twenty minutes. Antinociception is quantified as reduction in the number of writhes respective to vehicle.
An analgesic assay was used to determine whether a given compound can reduce and/or prevent visceral pain in mice. The assay utilizes Swiss Albino or CD-1 male mice (5-10 mice per group), each mouse being approximately 0.015-0.030 kg on the study day. Mice were treated according to standard protocols.
The animal was given an intraperitoneal (IP) injection of an irritant (acetic acid) that induces “writhing” which may include: contractions of the abdomen, twisting and turning of the trunk, arching of the back and the extension of the hindlimbs. Mice are given a single IP injection (0.1 mL/10 g bodyweight) of a 0.5% acetic acid solution. After the injection the animals were returned to their observation enclosure and their behavior was observed. Contractions were counted between 0 and 20 minutes after the injection. The animals were used once. In certain instances, the test articles were administered at multiple doses to determine a dose response curve.
Table 4 provides the results for certain compounds of the present invention that were administered subcutaneously. Table 5 provides the results for certain compounds of the present invention that were administered orally.

[4] = inhibition of cAMP accumulation, forskolin 20 μM, read-out: EC50 cAMP (nM)-KOR

COCCOCCOCCOCCOCCOCCOCCOc1ccc2c(c1)[C@]1(C)CCN(CC3CC3)[C@H](C2=O)[C@@H]1C [Compound 6, (2S,6R,11R)-3-(Cyclopropylmethyl)-8-(2,5,8,11,14,17,20-heptaoxadocosan-22-yloxy)-6,11-dimethyl-3,4,5,6-tetrahydro-2,6-methano-3-benzazocin-1(2H)-one]
EC50 [1]: 357 nM
IC50 [2]: 6080 nM
Ki [2]: 1400 nM

COCCOCCOCCOCCOCCNc1ccc(Nc2ccc3c(c2)[C@]2(C)CCN(CC4CC4)[C@H](C3=O)[C@@H]2C)cc1 [Compound 10, (2S,6R,11R)-8-((4-(2,5,8,11,14-pentaoxahexadecan-16-ylamino)phenyl)amino)-3-(cyclopropylmethyl)-6,11-dimethyl-3,4,5,6-tetrahydro-2,6-methanobenzo[d]azocin-1(2H)-one]
inhibition in vivo at 30 mg/kg ([3]; sc, subcutaneous): 100%
AAW % Efficacy ([3]; subcutaneous, 3 mg/kg): 34.0%
AAW percent efficacy, outlier data removed ([3]; subcutaneous, 3 mg/kg): 26.63

COCCOCCOCCOCCOCCOc1cccc(Nc2ccc3c(c2)[C@]2(C)CCN(CC4CC4)[C@H](C3=O)[C@@H]2C)c1 [Compound 8, (2S,6R,11R)-8-((3-(2,5,8,11,14-pentaoxahexadecan-16-yloxy)phenyl)amino)-3-(cyclopropylmethyl)-6,11-dimethyl-3,4,5,6-tetrahydro-2,6-methanobenzo[d]azocin-1(2H)-one]
inhibition in vivo at 3 mg/kg ([3]; sc, subcutaneous, 3 mg/kg): 38%
inhibition in vivo at 30 mg/kg ([3]; sc, subcutaneous): 100%
AAW percent efficacy, outlier data removed ([3]; subcutaneous, 3 mg/kg): 31.07

COCCOCCOCCOCCOCCO[C@@H]1c2ccc(O)cc2[C@]2(C)CCN(CC3CC3)[C@H]1[C@@H]2C [Compound 25, (1R,2S,6R,11R)-1-(2,5,8,11,14-pentaoxahexadecan-16-yloxy)-3-(cyclopropylmethyl)-6,11-dimethyl-1,2,3,4,5,6-hexahydro-2,6-methanobenzo[d]azocin-8-ol]
EC50 [1, 4]: 195 nM
Ki [2]: 955 nM

COCCNC(=O)c1ccc2c(c1)[C@]1(C)CCN(CC3CC3)[C@H](C2=O)[C@@H]1C [Compound 16, (2S,6R,11R)-3-(cyclopropylmethyl)-N-(2-methoxyethyl)-6,11-dimethyl-1-oxo-1,2,3,4,5,6-hexahydro-2,6-methanobenzo[d]azocine-8-carboxamide]
inhibition in vivo at 10 mg/kg ([3]; sc, subcutaneous, 10 mg/kg): 26.4%

COCCOCCOCCOCCOCCNc1nc2cc3c(cc2s1)C(=O)[C@@H]1[C@H](C)[C@@]3(C)CCN1CC1CC1 [Compound 13, (6S,10R,12R)-2-(2,5,8,11,14-pentaoxahexadecan-16-ylamino)-7-(cyclopropylmethyl)-10,12-dimethyl-7,8,9,10-tetrahydro-6,10-methanothiazolo[4′,5′:4,5]benzo[1,2-d]azocin-5(6H)-one]
inhibition in vivo at 10 mg/kg ([3]; sc, subcutaneous, 10 mg/kg): 40.2%

COCCOCCOCCOCCOCCOc1ccccc1Nc1ccc2c(c1)[C@]1(C)CCN(CC3CC3)[C@H](C2=O)[C@@H]1C [Compound 7, (2S,6R,11R)-8-((2-(2,5,8,11,14-pentaoxahexadecan-16-yloxy)phenyl)amino)-3-(cyclopropylmethyl)-6,11-dimethyl-3,4,5,6-tetrahydro-2,6-methanobenzo[d]azocin-1(2H)-one]
inhibition in vivo at 3 mg/kg ([3]; sc, subcutaneous, 3 mg/kg): 38.8%
inhibition in vivo at 30 mg/kg ([3]; sc, subcutaneous): 84.8%
AAW percent efficacy, outlier data removed ([3]; subcutaneous, 3 mg/kg): 31.95

COCCOCC(=O)Nc1ccc2c(c1)[C@]1(C)CCN(CC3CC3)[C@H](C2=O)[C@@H]1C [Compound 15, N-((2S,6R,11R)-3-(cyclopropylmethyl)-6,11-dimethyl-1-oxo-1,2,3,4,5,6-hexahydro-2,6-methanobenzo[d]azocin-8-yl)-2-(2-methoxyethoxy)acetamide]
inhibition in vivo at 10 mg/kg ([3]; sc, subcutaneous, 10 mg/kg): 100%

COCCOCCNCc1ccc2c(c1)[C@]1(C)CCN(CC3CC3)[C@H](C2=O)[C@@H]1C [Compound 18, (2S,6R,11R)-3-(cyclopropylmethyl)-8-(((2-(2-methoxyethoxy)ethyl)amino)methyl)-6,11-dimethyl-3,4,5,6-tetrahydro-2,6-methanobenzo[d]azocin-1(2H)-one]
inhibition in vivo at 10 mg/kg ([3]; sc, subcutaneous, 10 mg/kg): 31.9%

COCCOCCOCCOCCOCCOc1c(O)ccc2c1[C@]1(C)CCN(CC3CC3)[C@H](C2=O)[C@@H]1C [Compound 19, (2S,6R,11R)-7-(2,5,8,11,14-pentaoxahexadecan-16-yloxy)-3-(cyclopropylmethyl)-8-hydroxy-6,11-dimethyl-3,4,5,6-tetrahydro-2,6-methanobenzo[d]azocin-1(2H)-one]
inhibition in vivo at 10 mg/kg ([3]; sc, subcutaneous, 10 mg/kg): 31.6%

COCCOCC(=O)NCc1ccc2c(c1)[C@]1(C)CCN(CC3CC3)C(C2=O)[C@@H]1C [Compound 17, N,N-(((2S,6R,11R)-3-(cyclopropylmethyl)-6,11-dimethyl-1-oxo-1,2,3,4,5,6-hexahydro-2,6-methanobenzo[d]azocin-8-yl)methyl)-2-(2-methoxyethoxy)acetamide]
inhibition in vivo at 10 mg/kg ([3]; sc, subcutaneous, 10 mg/kg): 23.3%

COCCOCCOCCOCCOCCOc1ccc(Nc2ccc3c(c2)[C@]2(C)CCN(CC4CC4)[C@H](C3=O)[C@@H]2C)cc1 [Compound 9, (2S,6R,11R)-8-((4-(2,5,8,11,14-pentaoxahexadecan-16-yloxy)phenyl)amino)-3-(cyclopropylmethyl)-6,11-dimethyl-3,4,5,6-tetrahydro-2,6-methanobenzo[d]azocin-1(2H)-one]
inhibition in vivo at 10 mg/kg ([3]; po, oral, 10 mg/kg): 38.5%
inhibition in vivo at 0.3 mg/kg ([3]; sc, subcutaneous, 0.3 mg/kg): 13.3%
inhibition in vivo at 3 mg/kg ([3]; sc, subcutaneous, 3 mg/kg): 67.8%
inhibition in vivo at 10 mg/kg ([3]; sc, subcutaneous, 10 mg/kg): 95.4%
inhibition in vivo at 30 mg/kg ([3]; sc, subcutaneous): 99.2%
AAW percent efficacy, outlier data removed ([3]; subcutaneous, 0.3 mg/kg): 13.18
AAW percent efficacy, outlier data removed ([3]; subcutaneous, 3 mg/kg): 64.20 and 57.09
AAW percent efficacy, outlier data removed ([3]; subcutaneous, 10 mg/kg): 94.93

COCCOCCOCCOCCOCCNc1ccc2c(c1)[C@]1(C)CCN(CC3CC3)[C@H](C2=O)[C@@H]1C [Compound 2, (2S,6R,11R)-3-(Cyclopropylmethyl)-6,11-dimethyl-8-(2,5,8,11,14-pentaoxahexadecan-16-ylamino)-3,4,5,6-tetrahydro-2,6-methano-3-benzazocin-1(2H)-one]
EC50 [1, 4]: 139 nM
IC50 [2]: 2380 nM
Ki [2]: 549 nM

COCCOCCOCCOCCOCCNc1cccc(Nc2ccc3c(c2)[C@]2(C)CCN(CC4CC4)[C@H](C3=O)[C@@H]2C)c1 [Compound 11, (2S,6R,11R)-8-((3-(2,5,8,11,14-pentaoxahexadecan-16-ylamino)phenyl)amino)-3-(cyclopropylmethyl)-6,11-dimethyl-3,4,5,6-tetrahydro-2,6-methanobenzo[d]azocin-1(2H)-one]
inhibition in vivo at 10 mg/kg ([3]; po, oral, 10 mg/kg): 31.2%
inhibition in vivo at 0.3 mg/kg ([3]; sc, subcutaneous, 0.3 mg/kg): 21.1%
inhibition in vivo at 3 mg/kg ([3]; sc, subcutaneous, 3 mg/kg): 62.2%
inhibition in vivo at 10 mg/kg ([3]; sc, subcutaneous, 10 mg/kg): 99.1%
inhibition in vivo at 30 mg/kg ([3]; sc, subcutaneous): 100%
AAW percent efficacy, outlier data removed ([3]; subcutaneous, 0.3 mg/kg): 12.30
AAW percent efficacy, outlier data removed ([3]; subcutaneous, 3 mg/kg): 56.21 and 60.30
AAW percent efficacy, outlier data removed ([3]; subcutaneous, 10 mg/kg): 99.00

COCCOCCN1CC[C@@]2(C)c3cc(O)ccc3C(=O)[C@@H]1[C@@H]2C [Compound 14, (2S,6R,11R)-8-hydroxy-3-(2-(2-methoxyethoxy)ethyl)-6,11-dimethyl-3,4,5,6-tetrahydro-2,6-methanobenzo[d]azocin-1(2H)-one]
inhibition in vivo at 10 mg/kg ([3]; sc, subcutaneous, 10 mg/kg): 13.2%

C[C@H]1[C@H]2C(=O)c3cc4sc(N)nc4cc3[C@]1(C)CCN2CC1CC1 [Step 1 of 13, (6S,10R,12R)-2-amino-7-(cyclopropylmethyl)-10,12-dimethyl-7,8,9,10-tetrahydro-6,10-methanothiazolo[4′,5′:4,5]benzo[1,2-d]azocin-5(6H)-one]
inhibition in vivo at 10 mg/kg ([3]; sc, subcutaneous, 10 mg/kg): 100%

COCCOCCOCCOCCOCCOCCOCCNc1ccc2c(c1)[C@]1(C)CCN(CC3CC3)[C@H](C2=O)[C@@H]1C [Compound 3, (2S,6R,11R)-3-(Cyclopropylmethyl)-8-(2,5,8,11,14,17,20-heptaoxadocosan-22-ylamino)-6,11-dimethyl-3,4,5,6-tetrahydro-2,6-methano-3-benzazocin-1(2H)-one]
EC50 [1, 4]: 122 nM
Ki ([2]; Cheng Prusoff correction, [3H]Diprenorphine 1 nM, CHO-K1 membranes, read-out: Kappa receptor binding Ki): 769 nM
IC50 ([2]; [3H]Diprenorphine 1 nM, CHO-K1 membranes, read-out: Kappa receptor binding IC50): 3330 nM
